Data set [1] deals with T1, human CB1 receptor (Homo sapiens, UniProt P21554).
T1 construct: expressed in transfected cells
The data set is described as follows: Competition radioligand binding, human CB1. How it is done:
HEK293 (CB1) or CHO (CB1 and CB2) cells (ATCC) were stably transfected with the human CB1 or CB2 receptors. Rat brain, and recombinant CB1 and CB2 and membranes were prepared as described. A Pierce™ BCA kit was used to determine protein concentrations.
10 μg of membranes per well from human CB1 and CB 2 receptor transfected cells and rat brain was used in the assay. The plates were covered and placed in an incubator at 30°C for 60 min. At the end of the incubation period 125 μl of stop buffer (10% BSA plus TME) was added to the reaction plate. The plates were then harvested onto GF/C filter plates (Perkin Elmer Life Sciences) presoaked in BSA (5 mg/ml) plus TME. Each filter was washed twice with TME and dried overnight. In the morning the filters were counted on a Wallac Trilux™ counter.
(§1) Saturation and competition radioligand binding assays were used to characterize membranes prepared from human recombinant CB1 and CB2 and rat brain membranes.

Data set [2] concerns the target T2, human CB1 in CHO cells (Homo sapiens, UniProt P21554).
T2 construct: expressed in transfected cells
The data set is described as follows: GTPγ[35S] functional assay, antagonism of CP-55940 stimulation, Schild analysis. The data set is classed as biochemical. How it is done: GTPγ[^35S] binding assays were performed as described. GTPγ[^35S] binding assays were performed in a 96-well FlashPlate™ format in duplicate using 100 pM GTPγ[^35S] and 10 μg membrane per well in assay buffer composed of 50 mM Tris HCl (pH 7.4); 3 mM MgCl2 (pH 7.4); 10 mM MgCl2, 20 mM EGTA, 100 mM NaCl, 30 μM GDP, 0.1% BSA and the following protease inhibitors: 100 μg/ml bacitracin, 100 μg/ml benzamidine, 5 μg/ml aprotinin, and 5 μg/ml leupeptin. […] Assays were performed at 30°C for 1 hr. The FlashPlates™ were then centrifuged at 2000×g for 10 min. Stimulation of GTPγ[^35S] binding was then quantified using a Wallac Microbeta® [16].
as §1

Data set [3] in a line: Plasma to brain concentration ratios (brain impairment). The data set is classed as in vivo. Particulars: Sprague-Dawley, rat, brain and plasma (unbound and total), oral; mean ± SD over 0.3, 1, 3, 10 mg/kg p.o., n = 3 per dose; read-out: Ratios of unbound plasma and total plasma to unbound brain and total brain concentrations.
A short description of data set [4]: Core body temperature. To be noted: C57BL/6J mice, n = 5 per group. The class given is in vivo, mouse. How it is done:
In a separate study, core body temperature was measured in C57BL/6J mice.

The nature of data set [5]: Four day chow-fed rat food intake and body weight study. The data set is classed as in vivo. Particulars: chow-fed rats. How it is done:
CE-178253 was evaluated in 4-day chow-fed and DIO S-D rat studies. Male 12-16 week old S-D rats which had been maintained on regular chow were singly housed and acclimated to handling and dosing and two days of food intake were recorded to establish baseline food intake values before dosing was initiated. The animals were randomly sorted and assigned to treatment groups (n = 7-8 per group). Two studies were performed. In study 1 (age = 12 weeks) the mean starting weight of all animals was 370 ± 6 g. In study 2 (age = 16 weeks) the mean starting weight of all animals was 431 ± 11 g. Rats were dosed (2 mls/kg) with veh. or CE-178253 according to body weight. FI and BW were recorded daily.
CE-178253 was also evaluated in chow-fed rats in a 4 day FI and BW study. Rats were treated once daily with veh. (0.5% MC) or CE-178253. In the first study the same doses used in the DIO study were used to compare FI and BW efficacy. […] CE-178253 was clearly efficacious in acute food intake studies in chow-fed rats up to 12 hours (Figure 3). A comparison of 24 hr FI in chow-fed and DIO rats yielded different efficacy in response to CE-178253 treatment. The 1 mg/kg dose yielded an 8% decrease in 24 hr FI compared to veh-treated animals (p = 0.053). […] Initial and final body weights of veh-treated rats were 371 ± 7 g and 390 ± 7 g (n = 8), respectively. Initial and final body weights of 0.3 mg/kg CE-178253-treated rats were 374 ± 7 g and 388 ± 9 g, respectively. Initial and final body weights of 1 mg/kg CE-178253-treated rats were 373 ± 7 g and 390 ± 9 g, (respectively.
Based on the weak efficacy observed at the 0.3 and 1 mg/kg doses the study was repeated using higher doses of CE-178253 (Figures 7A and 7B). At 3 and 10 mg/kg (QD, p.o.) doses, statistically significant decreases in FI and BW were observed. Initial and final body weights of veh.-treated rats were 435 ± 11 g and 451 ± 12 g (n = 8), respectively, […]. Initial and final body weights of 3 mg/kg CE-178253-treated rats were 436 ± 9 g and 427 ± 9 g, respectively, a 2% decline. Initial and final body weights of 10 mg/kg CE-178253-treated rats were 435 ± 11 g and 430 ± 10 g, respectively, […]. […] Thus, as has been reported for other CB1 receptor antagonists it is likely that DIO rats are more sensitive to the anorectic and weight loss effect of CE-178253.

Data set [6] is described as follows: Ten day DIO mouse food intake and body weight study. The class given is in vivo. Particulars: 10-day, DIO mice. How it is done: Male, 14 week old C57/Bl6/6J mice which had been maintained on a high fat diet (45% kcal from fat) for 6 weeks were selected for the DIO weight loss study. The animals body weights ranged at least 5 standard deviations from age-matched chow-fed control animals mean body weight. Mice were singly housed. The mean starting weight of all animals was 38.9 ± 0.5 g. On Day 0, mice were randomly assigned to treatment groups (n = 10 per group). Mice were dosed daily over 10 days, starting approximately at 30 minutes before the start of the 12 hr dark cycle. BW and food intake were recorded daily.
DIO mice were treated once daily with veh. (0.5% MC) or CE-178253 at 1 mg/kg or 3 mg/kg, p.o., in a 10-day study (Figures 8A and 8B). […] The lower dose of CE-178253 (1 mg/kg, p.o.) provided for a non-significant 8% reduction in FI, whereas the 3 mg/kg dose led to a significant 31% reduction in cumulative FI. As with other CB1 receptor antagonists, the food intake reduction was maximal over the first five days and declined over time (Figure 8A). However, FI reductions were still evident on the final day of dosing at the high dose. […] The high dose group (3 mg/kg) lost, on average 18% BW.

T2 sequence (P21554 whole entry): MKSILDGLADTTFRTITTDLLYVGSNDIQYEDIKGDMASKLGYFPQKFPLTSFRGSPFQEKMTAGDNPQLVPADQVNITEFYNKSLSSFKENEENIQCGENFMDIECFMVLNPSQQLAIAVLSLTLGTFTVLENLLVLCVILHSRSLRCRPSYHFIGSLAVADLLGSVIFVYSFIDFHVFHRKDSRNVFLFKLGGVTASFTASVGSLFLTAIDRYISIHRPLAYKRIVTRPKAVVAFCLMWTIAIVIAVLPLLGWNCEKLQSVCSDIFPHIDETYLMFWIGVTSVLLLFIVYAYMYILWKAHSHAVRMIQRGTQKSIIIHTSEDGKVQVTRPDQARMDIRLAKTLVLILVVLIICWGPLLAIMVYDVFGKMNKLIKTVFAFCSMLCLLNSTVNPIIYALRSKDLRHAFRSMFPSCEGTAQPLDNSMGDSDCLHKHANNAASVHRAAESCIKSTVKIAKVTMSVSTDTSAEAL
T1 sequence (P21554 whole entry): as above

What is called Ki is the dissociation constant of the complex between target and ligand, obtained from inhibition or displacement. As usually defined, the Kb is the equilibrium dissociation constant of an antagonist, usually derived from a functional assay. High values mean lower antagonist affinity, low ones higher antagonist affinity. As for `CCNC1(C(N)=O)CN(c2nc(C)nc3c(-c4ccc(Cl)cc4)c(-c4ccccc4Cl)nn23)C1` [CE-178253], the “Concentration giving complete inhibition of [3H]SR141716A binding” value in data set [1] (not shown) is listed as “greater than 10 nM”. Besides, the Ki in data set [1] (read-out: Ki, competition binding, hCB1) was determined as 0.33 ± 0.07 nM; in data set [2] (inhibition of CP-55940-stimulated GTPγ[35S] binding, read-out: Antagonist Ki, GTPγ[35S] functional assay) it was 0.07 ± 0.01 nM. Further, the Kb in data set [2] (GTPγ[35S] assay) stood at 0.63 nM. In data set [2] (GTPγ[35S] functional assay, Schild slope), this compound returned a Slope of 0.83. For the same compound, the Plasma-to-brain concentration ratio at […] in data set [3] worked out at 2.9 ± 0.25. Also, the “Increase in core body temperature compared to veh” value amounted to 0.7 ± 0.3 °C in data set [4] (1 mg/kg) and 1.2 ± 0.3 °C in data set [4] (3 mg/kg). Further, the Final body weight is listed as 388 ± 9 g in data set [5] (0.3 mg/kg, 4 day, initial 374 ± 7 g); 390 ± 9 g in data set [5] (1 mg/kg, 4 day, initial 373 ± 7 g); 427 ± 9 g in data set [5] (3 mg/kg QD p.o., 4 day, initial 436 ± 9 g); 430 ± 10 g in data set [5] (10 mg/kg QD p.o., 4 day, initial 435 ± 11 g). Moreover, the “Decrease in 24 hr FI compared to veh-treated animals” value in data set [5] (1 mg/kg, p = 0.053) is given as 8%. Moreover, the “Decline in body weight, initial to final” value in data set [5] (3 mg/kg QD p.o., 4 day) is 2%. The “Increase in body weight, initial to final” value in data set [5] (10 mg/kg QD p.o., 4 day) worked out at 1%. Moreover, in data set [5] (0.3 and 1 mg/kg dosing groups, 4 day), the “BW changes vs veh” value is reported as “No statistically significant differences”. Besides, the “Reduction in cumulative FI” value stood at 8% in data set [6] (1 mg/kg p.o. once daily, non-significant) and 31% in data set [6] (3 mg/kg p.o. once daily, significant). Moreover, in data set [6] (3 mg/kg p.o. once daily), the “BW lost, on average” value turned out to be 18%.

The values are drawn from publication PMC2933614, “Quantitative in vitro and in vivo pharmacological profile of CE-178253, a potent and selective cannabinoid type 1 (CB1) Receptor Antagonist” (BMC Pharmacology, 2010).
